Test [1] concerns the target T1, BromoTag (Homo sapiens, UniProt O60885, L387A).
T1 construct: BRD4 BD2 L387A mutant tag; expressed in transfected cells; host or cells: HEK293T
Kind of test: NanoBiT assay, BromoTag homodimerization, tag expressed alone. Format: cell-based. Conditions: all orientations of LgBiT and SmBiT tags; FIGS. 4A-4D and 5; high background. The text has this:
(§1) FKBP/BromoTag NanoBiT-tagged construct cloning. FKBP12F36V and BromoTag sequences were cloned using Gibson assembly into pBiT1.1-C [TK/LgBiT], pBiT2.1-C [TK/SmBiT], pBiT1.1-N [TK/LgBiT], and pBiT2.1-N [TK/SmBiT] vectors included in the NanoBiT® PPI MCS Starter System kit (Promega #N2014). […] pBiT1.1 and pBiT2.1 vectors were linearized at EcoRI and NheI cut sites, inserts were amplified with PCR, and constructs were ligated using NEBuilder® HiFi DNA Assembly Master Mix.
(§2) NanoBiT assay. 15k HEK293T cells per well were plated in 92 ul DMEM+10% FBS in opaque 96-well plates and allowed to adhere overnight, approximately 18-24 hours. HEK293T cells were subsequently transfected with pBiT1.1 (LgBiT-tagged) or pBiT2.1 (SmBiT-tagged) FKBP12F36V and/or BromoTag vectors, using TransIT-LT1 transfection reagent (Mirus #MIR2300) and Opti-MEM (Gibco #31985062). After 24 hours, 25 ul Nano-Glo® Live Cell Reagent was added to each well to measure dimerization signal. Using a PHERAstar FSX, baseline luminescence was measured for five or six cycles (approximately eight to ten minutes). Test dimerizer compounds freshly diluted in DMEM+10% FBS were then manually spiked in and induced luminescence was measured continuously for up to two hours. All summary figures were generated with GraphPad Prism. Data for the NanoBit assay is provided in FIGS. 1A-1D, 2A-2B, 3A-3B, 4A-4D, 5, 6A-6B, 7, and 12A-12C.

In test [2] the target is T2, FKBP12F36V and BromoTag (Homo sapiens, UniProt O60885+P62942, F37V/L387A).
T2 construct: BRD4 BD2 L387A mutant tag; LgBiT or SmBiT (NanoBiT subunit); expressed in transfected cells; host or cells: HEK293T
T2 sequence (P62942 whole entry F37V, other chains not shown): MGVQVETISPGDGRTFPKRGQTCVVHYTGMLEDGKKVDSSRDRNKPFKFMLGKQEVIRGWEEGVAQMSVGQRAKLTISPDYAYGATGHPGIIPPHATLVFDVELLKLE
Description: NanoBiT assay, FKBP/BromoTag heterodimerization, tags expressed alone. The conditions noted are these: all LgBiT and SmBiT tag orientations; FIGS. 1A-1D; HEK293T. Format: cell-based.
Text: as §1
as §2, with “All summary figures were generated with GraphPad Prism. Data for the NanoBit assay is provided in FIGS. 1A-1D, 2A-2B, 3A-3B, 4A-4D, 5, 6A-6B, 7, and 12A-12C.” left out

Each structure is given as a SMILES string. Entries after “also recorded” stand apart in the source; their conditions may differ.

For the compound `CC[C@@H](C(=O)NCCCCCCNC(=O)[C@H](CC)[C@@H]1N=C(c2ccc(Cl)cc2)c2c(sc(C)c2C)-n2c(C)nnc21)[C@@H]1N=C(c2ccc(Cl)cc2)c2c(sc(C)c2C)-n2c(C)nnc21` [MMH-05-01-02, (2R,2′R)-N,N′-(hexane-1,6-diyl)bis(2-((S)-4-(4-chlorophenyl)-2,3,9-trimethyl-6H-thieno[3,2-f][1,2,4]triazolo[4,3-a][1,4]diazepin-6-yl)butanamide)], in test [1], the “max dimerization signal compared with DMSO” value is recorded as “improved max dimerization signal over DMSO; also recorded: in most NanoBiT tag orientations have improved signal over DMSO” and the “max dimerization signal compared with FKBP12WT/FRB-rapamycin control” value is given as “significantly higher signal; also recorded: outperformed existing FKBP12WT/FRB-rapamycin heterodimerization system”.
The like results for `CC[C@@H](C(=O)NCCOCCOCCNC(=O)[C@H](CC)[C@@H]1N=C(c2ccc(Cl)cc2)c2c(sc(C)c2C)-n2c(C)nnc21)[C@@H]1N=C(c2ccc(Cl)cc2)c2c(sc(C)c2C)-n2c(C)nnc21` [MMH-05-01-03, (2R,2′R)-N,N′-((ethane-1,2-diylbis(oxy))bis(ethane-2,1-diyl))bis(2-((S)-4-(4-chlorophenyl)-2,3,9-trimethyl-6H-thieno[3,2-f][1,2,4]triazolo[4,3-a][1,4]diazepin-6-yl)butanamide)] were, in that order, “improved max dimerization signal over DMSO; also recorded: in most NanoBiT tag orientations have improved signal over DMSO” and “significantly higher signal; also recorded: outperformed existing FKBP12WT/FRB-rapamycin heterodimerization system”.
Take `CC[C@H](C(=O)N1CCCC[C@H]1C(=O)O[C@H](CCc1ccc(OC)c(OC)c1)c1cccc(OCC(=O)NCCCCCCNC(=O)[C@H](CC)[C@@H]2N=C(c3ccc(Cl)cc3)c3c(sc(C)c3C)-n3c(C)nnc32)c1)c1cc(OC)c(OC)c(OC)c1` [MMH-04-74, (R)-1-(3-(2-((6-((R)-2-((S)-4-(4-chlorophenyl)-2,3,9-trimethyl-6H-thieno[3,2-f][1,2,4]triazolo[4,3-a][1,4]diazepin-6-yl)butanamido)hexyl)amino)-2-oxoethoxy)phenyl)-3-(3,4-dimethoxyphenyl)propyl (S)-1-((S)-2-(3,4,5-trimethoxyphenyl)butanoyl)piperidine-2-carboxylate]: in test [2], the “max dimerization signal compared with FKBP12WT/FRB-rapamycin (sirolimus) control” value is reported as “dramatically higher max dimerization signal”.

The values above are taken from patent publication US20250388607A1, “A BROMOTAG-BASED TOOLKIT FOR RAPID INDUCTION OF CHEMICALLY INDUCED PROXIMITY” (THE BOARD OF TRUSTEES OF THE LELAND STANFORD JUNIOR …, priority 2024, published 2025).
